pIC50: −log10 of the molar value.

The subject of one assay is SK-BR-3 cells. In words: Measurement of cell growth inhibition (crystal violet staining method). Format: cell-based. Conditions: Homo sapiens; breast cancer SK-BR-3 cells, 72 hr culture with test substance.
The target of assay [1] is human HSP90 alpha protein (HSP90 N-terminal protein, amino acids 2-236) (Homo sapiens (Human), UniProt P07900). In words: Measurement of HSP90-binding activity (AlphaScreen competitive assay, biotin-labeled geldanamycin). The settings on record: concentration inhibiting binding of biotin-labeled geldanamycin (40 nM) to purified HSP90 to 50% of control; read-out: HSP-binding activity IC50. For orientation: Alpha assays give light when donor and acceptor beads are brought close together.

On to `CC(C)Nc1cc(-n2nc(C(C)C)c3c(-n4cnc(-c5cccnc5)c4)ccnc32)ccc1C(N)=O` [Example 140, 4-{3-Isopropyl-4-(4-(pyridin-3-yl)-1H-imidazol-1-yl)-1H-pyrazolo[3,4-b]pyridin-1-yl}-2-(isopropylamino)benzamide], for which the results for the pIC50 (in the assay with SK-BR-3 cells; in assay [1]) were 6.72 and 6.12, respectively.

Take `CCc1cn(-c2ccc(C(N)=O)c(N[C@H]3CC[C@H](O)CC3)c2)c2nccc(-c3cnc4ccccc4c3)c12` [Example 41, 4-{3-Ethyl-4-(quinolin-3-yl)-1H-pyrrolo[2,3-b]pyridin-1-yl}-2-(trans-4-hydroxycyclohexylamino)benzamide]: the pIC50 in the assay on SK-BR-3 cells is 7.52; in assay [1] it was 6.92.

`CCc1cn(-c2ccc(C(N)=O)c(NC3CCCCC3N)c2)c2nccc(-c3cnc4ccccc4c3)c12` (stereo not shown) [Example 70, 2-(2-Aminocyclohexylamino)-4-{3-ethyl-4-(quinolin-3-yl)-1H-pyrrolo[2,3-b]pyridin-1-yl}benzamide]: the figures for the pIC50 (with SK-BR-3 cells; in assay [1]) were 7.10 and 6.64, respectively.

On to `CC(C)c1nn(-c2ccc(C(N)=O)c(NCc3ccccc3)c2)c2nccc(-c3cnc4ccccc4c3)c12` [Example 20, 2-(Benzylamino)-4-{3-isopropyl-4-(quinolin-3-yl)-1H-pyrazolo[3,4-b]pyridin-1-yl}benzamide], for which the pIC50 in the assay with SK-BR-3 cells was 6.17; in assay [1] it was 5.52.

Turning to `CCn1cc(-c2cn(-c3ccnc4c3c(C(C)C)nn4-c3ccc(C(N)=O)cc3Cl)cn2)cn1` [Example 145, 3-Chloro-4-{4-(4-(1-ethyl-1H-pyrazol-4-yl)-1H-imidazol-1-yl)-3-isopropyl-1H-pyrazolo[3,4-b]pyridin-1-yl}benzamide], the figures for the pIC50 (in the assay on SK-BR-3 cells; in assay [1]) were 5.82 and 6.20, respectively.

Take `COc1ccc(-c2cn(-c3ccnc4c3c(C(C)C)nn4-c3ccc(C(N)=O)c(N(O)C4CCCCC4)c3)cn2)cc1` [Example 83, 2-(Hydroxycyclohexylamino)-4-{3-isopropyl-4-(4-(4-methoxyphenyl)-1H-imidazol-1-yl)-1H-pyrazolo[3,4-b]pyridin-1-yl}benzamide]: the pIC50 with SK-BR-3 cells is 6.96; in assay [1], 6.40.

In the case of `CC(C)c1nn(-c2ccc(C(N)=O)c(NC3CCC(O)CC3)c2)c2nccc(-n3cnc(-n4ccnc4)c3)c12` (stereo not shown) [Example 92, 4-{4-(1′H-1,4′-Biimidazol-1′-yl)-3-isopropyl-1H-pyrazolo[3,4-b]pyridin-1-yl}-2-(4-hydroxycyclohexylamino)benzamide], the pIC50 is 7.15 in the assay with SK-BR-3 cells and 6.89 in assay [1].

Turning to `CC(C)c1nn(-c2ccc(C(N)=O)cc2C#N)c2nccc(-n3cnc(-c4cnn(C)c4)c3)c12` [Example 124, 3-Cyano-4-{3-isopropyl-4-(4-(1-methyl-1H-pyrazol-4-yl)-1H-imidazol-1-yl)-1H-pyrazolo[3,4-b]pyridin-1-yl}benzamide], the pIC50 was 6.23 in the assay with SK-BR-3 cells and 6.46 in assay [1].

Take `CCc1cn(-c2ccc(C(N)=O)c(NCCCCO)c2)c2nccc(-c3cnc4ccccc4c3)c12` [Example 74, 4-{3-Ethyl-4-(quinolin-3-yl)-1H-pyrrolo[2,3-b]pyridin-1-yl}-2-(4-hydroxybutylamino)benzamide]: the negative-log IC50 (pIC50) was 6.57 with SK-BR-3 cells and 6.47 in assay [1].

Turning to `CCNc1cc(-n2nc(C(C)C)c3c(-n4cnc(-c5cccnc5)c4)ccnc32)ccc1C(N)=O` [Example 139, 2-(Ethylamino)-4-{3-isopropyl-4-(4-(pyridin-3-yl)-1H-imidazol-1-yl)-1H-pyrazolo[3,4-b]pyridin-1-yl}benzamide], the figures for the negative logarithm of the IC50 (pIC50) (with SK-BR-3 cells; in assay [1]) were 6.55 and 6.24, respectively.

On to `CC(C)Nc1cc(-n2nc(C(C)C)c3c(-n4cnc(-c5cnn(C)c5)c4)ccnc32)ccc1C(N)=O` [Example 111, 4-{3-Isopropyl-4-(4-(1-methyl-1H-pyrazol-4-yl)-1H-imidazol-1-yl)-1H-pyrazolo[3,4-b]pyridin-1-yl}-2-(isopropylamino)benzamide], for which the figures for the pIC50 (with SK-BR-3 cells; in assay [1]) were 7.10 and 6.72, respectively.

Turning to `Cn1cc(-c2cn(-c3ccnc4c3c(C(F)(F)F)nn4-c3ccc(C(N)=O)cc3C3CC3)cn2)cn1` [Example 173, 3-(Cyclopropyl)-4-{4-(4-(1-methyl-1H-pyrazol-4-yl)-1H-imidazol-1-yl)-3-(trifluoromethyl)-1H-pyrazolo[3,4-b]pyridin-1-yl}benzamide], the pIC50 was 7.10 in the assay with SK-BR-3 cells and 6.92 in assay [1].

Turning to `CSCCCNc1cc(-n2nc(C(C)C)c3c(-c4cnc5ccccc5c4)ccnc32)ccc1C(N)=O` [Example 23, 4-{3-Isopropyl-4-(quinolin-3-yl)-1H-pyrazolo[3,4-b]pyridin-1-yl}-2-{3-(methylthio)propylamino}benzamide], the pIC50 was 6.72 in the assay with SK-BR-3 cells and 6.31 in assay [1].

`CCc1cc(C(N)=O)ccc1-n1nc(C(F)(F)F)c2c(-n3cnc(-c4cnn(C)c4)c3)ccnc21` [Example 155, 3-Ethyl-4-{4-(4-(1-methyl-1H-pyrazol-4-yl)-1H-imidazol-1-yl)-3-(trifluoromethyl)-1H-pyrazolo[3,4-b]pyridin-1-yl}benzamide]: the pIC50 in the assay on SK-BR-3 cells is 7.40; in assay [1], 6.96.

`CCNc1c(C(N)=O)ccc(-n2nc(C(C)C)c3c(-n4cnc(-c5cnn(C)c5)c4)ccnc32)c1CC` [Example 133, 3-Ethyl-2-(ethylamino)-4-{3-isopropyl-4-(4-(1-methyl-1H-pyrazol-4-yl)-1H-imidazol-1-yl)-1H-pyrazolo[3,4-b]pyridin-1-yl}benzamide]: the figures for the negative logarithm of the IC50 (pIC50) (with SK-BR-3 cells; in assay [1]) were 6.82 and 6.80, respectively.

As to `CCCc1cc(C(N)=O)ccc1-n1nc(C(C)C)c2c(-n3cnc(-c4cnn(C)c4)c3)ccnc21` [Example 103, 4-{3-Isopropyl-4-(4-(1-methyl-1H-pyrazol-4-yl)-1H-imidazol-1-yl)-1H-pyrazolo[3,4-b]pyridin-1-yl}-3-propylbenzamide], the pIC50 with SK-BR-3 cells is 6.77; in assay [1] it was 6.92.

On to `CC(C)c1nn(-c2ccc(C(N)=O)c(N[C@H]3CC[C@H](O)CC3)c2)c2nccc(-c3cnc4c(c3)CCCC4)c12` [Example 19, 2-(Trans-4-hydroxycyclohexylamino)-4-{3-isopropyl-4-(5,6,7,8-tetrahydroquinolin-3-yl)-1H-pyrazolo[3,4-b]pyridin-1-yl}benzamide], for which the negative-log IC50 (pIC50) in the assay on SK-BR-3 cells was 6.33; in assay [1], 5.92.

For the compound `CCc1cn(-c2ccc(C(N)=O)c(NCCN3CCOCC3)c2)c2nccc(-c3cnc4ccccc4c3)c12` [Example 73, 4-{3-Ethyl-4-(quinolin-3-yl)-1H-pyrrolo[2,3-b]pyridin-1-yl}-2-(2-morpholinoethylamino)benzamide], the pIC50 in the assay on SK-BR-3 cells is 6.44; in assay [1], 6.23.

Turning to `CCc1nn(-c2ccc(C(N)=O)c(N[C@H]3CC[C@H](O)CC3)c2)c2nccc(-c3cnc4ccccc4c3)c12` [Example 3, 2-(Trans-4-hydroxycyclohexylamino)-4-{4-(quinolin-3-yl)-3-ethyl-1H-pyrazolo[3,4-b]pyridin-1-yl}benzamide], the values for the pIC50 (in the assay with SK-BR-3 cells; in assay [1]) were 7.70 and 6.77, respectively.

With `Cn1cc(-c2cn(-c3ccnc4c3c(C(F)(F)F)nn4-c3ccc(C(N)=O)cc3F)cn2)cn1` [Example 171, 3-Fluoro-4-{4-(4-(1-methyl-1H-pyrazol-4-yl)-1H-imidazol-1-yl)-3-(trifluoromethyl)-1H-pyrazolo[3,4-b]pyridin-1-yl}benzamide], the figures for the negative-log IC50 (pIC50) (in the assay with SK-BR-3 cells; in assay [1]) were 6.89 and 7.00, respectively.

By pIC50 is commonly meant the negative decadic logarithm of the IC50, by convention in mol/L.
